Reference: patent US11452727B2, “Combination therapy for treating cancer” (Epizyme, Inc., priority 2017, dated 2022)

Legend:
Assay in all cases: In vitro combination study with tazemetostat, cell proliferation (Cell Titer Glo)
NCI-H661 = conditions: 7 days tazemetostat pre-treatment, 6 days co-treatment with second agent
Procedure: (§1) Initial proliferation studies were performed to determine the IC50 of tazemetostat in each cell line. For the screen, tazemetostat was used at concentrations bracketed around the IC50 value. If 50% inhibitory concentration was not reached then tazemetostat was tested starting at 10 μM.
(§2) In order to study the effect of dual combination of tazemetostat and a second agent on cell proliferation, cells in log-linear phase growth rate were pre-treated with various concentrations of tazemetostat or DMSO for 7 days in flasks, plated in 384-well plates in the absence of compounds and co-treated on day 8 with tazemetostat or DMSO and the second agent serially diluted for additional 6 days (as depicted in FIG. 1). On day 15, plates were developed for endpoint analysis using Cell Titer Glo to measure ATP content, which was used as an indicator of cell viability. DMSO concentration was kept constant throughout the assay at 0.15% v/v.
(§3) All cell lines were obtained from American Type Culture Collection (ATCC; Rockville, Md.). […] A427, Calu-3, Calu-6 cell lines were cultured in EMEM+10% Fetal bovine serum (FBS)+1% v/v Penicillin/Streptomycin (P/S).

NCI-H2110 = conditions: 7 days tazemetostat pre-treatment, 6 days co-treatment with second agent
Procedure: as §1, §2

NCI-H460 = conditions: 7 days tazemetostat pre-treatment, 6 days co-treatment with second agent
Procedure: as §1, §2, §3

A427 = conditions: for combinatorial effect with tazemetostat (Loewe volume class): A427, 7 days tazemetostat pre-treatment, 6 days co-treatment with second agent
Procedure: as §1, §2, §3

NCI-H522 = conditions: 7 days tazemetostat pre-treatment, 6 days co-treatment with second agent
Procedure: as §1, §2

NCI-H1299 = conditions: 7 days tazemetostat pre-treatment, 6 days co-treatment with second agent
Procedure: as §1, §2

NCI-H1703 = conditions: 7 days tazemetostat pre-treatment, 6 days co-treatment with second agent
Procedure: as §1, §2

NCI-H1993 = conditions: 7 days tazemetostat pre-treatment, 6 days co-treatment with second agent
Procedure: as §1, §2

HCC827 = conditions: 7 days tazemetostat pre-treatment, 6 days co-treatment with second agent
Calu-6 = conditions: 7 days tazemetostat pre-treatment, 6 days co-treatment with second agent
Procedure: as §1, §2

Calu-3 = conditions: 7 days tazemetostat pre-treatment, 6 days co-treatment with second agent
NCI-H2122 = conditions: 7 days tazemetostat pre-treatment, 6 days co-treatment with second agent
Procedure: as §1, §2, §3

NCI-H1573 = conditions: 7 days tazemetostat pre-treatment, 6 days co-treatment with second agent
NCI-H1793 = conditions: 7 days tazemetostat pre-treatment, 6 days co-treatment with second agent
NCI-H838 = conditions: 7 days tazemetostat pre-treatment, 6 days co-treatment with second agent
Procedure: as §1, §2
NCI-H1573 was cultured in DMEM: F12 Medium containing the following components: 0.02 mg/ml insulin, 0.01 mg/ml transferrin, 25 nM sodium selenite, 50 nM Hydrocortisone, 1 ng/ml Epidermal Growth Factor, 0.01 mM ethanolamine, 0.01 mM phosphorylethanolamine, 100 pM triiodothyronine, 0.5% (w/v) bovine serum albumin, 0.5 mM sodium pyruvate, 4.5 mM L-glutamine and 1% v/v Pen/Strep.

NCI-H23 = conditions: 7 days tazemetostat pre-treatment, 6 days co-treatment with second agent
Procedure: as §1, §2, §3

NCI-H2030 = conditions: 7 days tazemetostat pre-treatment, 6 days co-treatment with second agent
Procedure: as §1, §2

A549 = conditions: 7 days tazemetostat pre-treatment, 6 days co-treatment with second agent

SMILES | combinatorial effect with tazemetostat (Loewe volume class) (NCI-H661) | combinatorial effect with tazemetostat (Loewe volume class) (NCI-H2110) | combinatorial effect with tazemetostat (Loewe volume class) (NCI-H460) | combinatorial effect with tazemetostat (Loewe volume class) (A427) | combinatorial effect with tazemetostat (Loewe volume class) (NCI-H522) | combinatorial effect with tazemetostat (Loewe volume class) (NCI-H1299) | combinatorial effect with tazemetostat (Loewe volume class) (NCI-H1703) | combinatorial effect with tazemetostat (Loewe volume class) (NCI-H1993) | combinatorial effect with tazemetostat (Loewe volume class) (HCC827) | combinatorial effect with tazemetostat (Loewe volume class) (Calu-6) | combinatorial effect with tazemetostat (Loewe volume class) (Calu-3) | combinatorial effect with tazemetostat (Loewe volume class) (NCI-H2122) | combinatorial effect with tazemetostat (Loewe volume class) (NCI-H1573) | combinatorial effect with tazemetostat (Loewe volume class) (NCI-H1793) | combinatorial effect with tazemetostat (Loewe volume class) (NCI-H838) | combinatorial effect with tazemetostat (Loewe volume class) (NCI-H23) | combinatorial effect with tazemetostat (Loewe volume class) (NCI-H2030) | combinatorial effect with tazemetostat (Loewe volume class) (A549) | synergy with an EZH2 inhibitor (tazemetostat) (A427; A427 cells, dose matrix, Loewe excess matrix, isobologram (FIG. 2-5))
CCN1CCN(Cc2ccc(Nc3ncc(F)c(-c4cc(F)c5nc(C)n(C(C)C)c5c4)n3)nc2)CC1 [Abemaciclib, abemaciclib] | Syn. (Loewe volumes greater than 1 denoted “synergy”) | Add. (A value between −1 and 1 denoted “additivity”) | Add. (A value between −1 and 1 denoted “additivity”) | Syn. (Loewe volumes greater than 1 denoted “synergy”) | Add. (A value between −1 and 1 denoted “additivity”) | Anta. (volumes <−1 denoted “antagonism”) | Add. (A value between −1 and 1 denoted “additivity”) | Syn. (Loewe volumes greater than 1 denoted “synergy”) | Add. (A value between −1 and 1 denoted “additivity”) | Syn. (Loewe volumes greater than 1 denoted “synergy”) | Add. (A value between −1 and 1 denoted “additivity”) | Anta. (volumes <−1 denoted “antagonism”) | Add. (A value between −1 and 1 denoted “additivity”) | Syn. (Loewe volumes greater than 1 denoted “synergy”) | Add. (A value between −1 and 1 denoted “additivity”) | Add. (A value between −1 and 1 denoted “additivity”) | Syn. (Loewe volumes greater than 1 denoted “synergy”) | Add. (A value between −1 and 1 denoted “additivity”) | 
Nc1cc(C(F)(F)F)c(-c2cc(N3CCOCC3)nc(N3CCOCC3)n2)cn1 [BKM-120] | Syn. (Loewe volumes greater than 1 denoted “synergy”) | Add. (A value between −1 and 1 denoted “additivity”) | Add. (A value between −1 and 1 denoted “additivity”) | Syn. (Loewe volumes greater than 1 denoted “synergy”) | Add. (A value between −1 and 1 denoted “additivity”) | Add. (A value between −1 and 1 denoted “additivity”) | Add. (A value between −1 and 1 denoted “additivity”) | Syn. (Loewe volumes greater than 1 denoted “synergy”) | Add. (A value between −1 and 1 denoted “additivity”) | Add. (A value between −1 and 1 denoted “additivity”) | Add. (A value between −1 and 1 denoted “additivity”) | Add. (A value between −1 and 1 denoted “additivity”) | Add. (A value between −1 and 1 denoted “additivity”) | Syn. (Loewe volumes greater than 1 denoted “synergy”) | Syn. (Loewe volumes greater than 1 denoted “synergy”) | Syn. (Loewe volumes greater than 1 denoted “synergy”) | Add. (A value between −1 and 1 denoted “additivity”) | Add. (A value between −1 and 1 denoted “additivity”) | 
COc1cc(N2CCC(N3CCN(C)CC3)CC2)ccc1Nc1ncc(Cl)c(Nc2ccccc2P(C)(C)=O)n1 [Brigatinib, brigatinib] | Add. (A value between −1 and 1 denoted “additivity”) | Syn. (Loewe volumes greater than 1 denoted “synergy”) | Syn. (Loewe volumes greater than 1 denoted “synergy”) | Syn. (Loewe volumes greater than 1 denoted “synergy”) | Syn. (Loewe volumes greater than 1 denoted “synergy”) | Add. (A value between −1 and 1 denoted “additivity”) | Syn. (Loewe volumes greater than 1 denoted “synergy”) | Syn. (Loewe volumes greater than 1 denoted “synergy”) |  | Add. (A value between −1 and 1 denoted “additivity”) | Syn. (Loewe volumes greater than 1 denoted “synergy”) | Add. (A value between −1 and 1 denoted “additivity”) | Syn. (Loewe volumes greater than 1 denoted “synergy”) | Syn. (Loewe volumes greater than 1 denoted “synergy”) | Syn. (Loewe volumes greater than 1 denoted “synergy”) | Syn. (Loewe volumes greater than 1 denoted “synergy”) | Syn. (Loewe volumes greater than 1 denoted “synergy”) | Syn. (Loewe volumes greater than 1 denoted “synergy”) | 
Cc1cc(Nc2ncc(Cl)c(Nc3ccccc3S(=O)(=O)C(C)C)n2)c(OC(C)C)cc1C1CCNCC1 [Ceritinib, ceritinib] | Syn. (Loewe volumes greater than 1 denoted “synergy”) | Add. (A value between −1 and 1 denoted “additivity”) | Add. (A value between −1 and 1 denoted “additivity”) | Syn. (Loewe volumes greater than 1 denoted “synergy”) | Add. (A value between −1 and 1 denoted “additivity”) | Add. (A value between −1 and 1 denoted “additivity”) | Add. (A value between −1 and 1 denoted “additivity”) | Syn. (Loewe volumes greater than 1 denoted “synergy”) | Add. (A value between −1 and 1 denoted “additivity”) | Add. (A value between −1 and 1 denoted “additivity”) | Add. (A value between −1 and 1 denoted “additivity”) | Anta. (volumes <−1 denoted “antagonism”) | Syn. (Loewe volumes greater than 1 denoted “synergy”) | Add. (A value between −1 and 1 denoted “additivity”) | Syn. (Loewe volumes greater than 1 denoted “synergy”) | Add. (A value between −1 and 1 denoted “additivity”) | Add. (A value between −1 and 1 denoted “additivity”) | Add. (A value between −1 and 1 denoted “additivity”) | synergy
